Measured values from US20110070211A1 (priority 2009, published 2011).

Test system: DU-145 cells
Format: cell-based, Human

C=C1[C@@H](C)[C@H]2[C@H](Cc3ccccc3)NC(=O)[C@]23[C@H](OC(C)=O)/C=C/[C@@](C)(O)C(=O)[C@@H](C)C/C=C/[C@H]3[C@@H]1O [Cytochalasin-D]
Effect on cell migration: did not migrate | Relative Wound Density at 24 Hours, Mean: 3.3 ± 0.2 | Relative Wound Density at 24 Hours, Percent Relative to Media: 4%
